US20240174690A1, “ANNULATED 2-AMINO-3-CYANO THIOPHENES AND DERIVATIVES FOR THE TREATMENT OF CANCER” (BOEHRINGER INGELHEIM INTERNATIONAL GMBH, priority 2021, published 2024)
Read-outs that look alike come from different tables or passages of the source.

Columns and labels:
[1] = test system: AsPC-1 cells; assay: AsPC-1 CTG proliferation assay (120 h) (pancreatic cancer, G12D); format: cell-based
Summary of the method: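 AsPC-1 cells (KRAS G12D), 2000/well in RPMI with 10% FCS, seeded overnight, then treated with compound for 120 h at 37 °C. Viability by CellTiter-Glo luminescence as percent of DMSO control. IC50 from a four-parameter non-linear fit.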

[2] = test system: GP2D cells; assay: GP2D proliferation assay (120 h) (colorectal cancer, G12D); format: cell-based
Procedure: GP2D Proliferation Assay (120 h) (Colorectal Cancer, G12D)
GP2D cells (ATCC No. CRL-5807) are dispensed into white 384-well plates, flat and white bottom (Perkin Elmer, 6007680) at a density of 500 cells per well in 40 μl DMEM (Sigma, D6429)+1×GlutaMAX (Gibco, 35050038)+10% FCS (fetal calf serum). […] Compounds (10 mM stock in DMSO) are added at logarithmic dose series using the HP Digital Dispenser D300 (Tecan), including DMSO controls and normalizing for added DMSO. For the TO time point measurement, untreated cells are analyzed at the time of compound addition. Plates are incubated for 120 h, and cell viability is measured using CellTiter-Glo luminescent cell viability reagent (Promega product code G7570). Viability (stated as percent of control) is defined as relative luminescence units RLU of each well divided by the RLU of cells in DMSO controls. IC50 values are determined from viability measurements by non-linear regression using a four parameter model.

[3] = test system: MKN1 cells; assay: MKN1 CTG proliferation assay (120 h) (gastric cancer, wt amplified); format: cell-based
Summary of the method: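 MKN1 gastric cancer cells (200–500 per well, RPMI + 10% FCS) given a logarithmic compound dose series and incubated 120 h. Viability by CellTiter-Glo luminescence as percent of DMSO controls. IC50 by four-parameter non-linear regression.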

[4] = target: CYP3A4 (Homo sapiens (Human), UniProt P08684); assay: Mechanism based inhibition of CYP3A4 assay (MBI 3A4); format: in vitro ADME; conditions: hydroxy-midazolam formation after 30 min vs 0 min preincubation, 25 uM, human liver microsomes
Sequence of CYP3A4 (P08684 whole entry): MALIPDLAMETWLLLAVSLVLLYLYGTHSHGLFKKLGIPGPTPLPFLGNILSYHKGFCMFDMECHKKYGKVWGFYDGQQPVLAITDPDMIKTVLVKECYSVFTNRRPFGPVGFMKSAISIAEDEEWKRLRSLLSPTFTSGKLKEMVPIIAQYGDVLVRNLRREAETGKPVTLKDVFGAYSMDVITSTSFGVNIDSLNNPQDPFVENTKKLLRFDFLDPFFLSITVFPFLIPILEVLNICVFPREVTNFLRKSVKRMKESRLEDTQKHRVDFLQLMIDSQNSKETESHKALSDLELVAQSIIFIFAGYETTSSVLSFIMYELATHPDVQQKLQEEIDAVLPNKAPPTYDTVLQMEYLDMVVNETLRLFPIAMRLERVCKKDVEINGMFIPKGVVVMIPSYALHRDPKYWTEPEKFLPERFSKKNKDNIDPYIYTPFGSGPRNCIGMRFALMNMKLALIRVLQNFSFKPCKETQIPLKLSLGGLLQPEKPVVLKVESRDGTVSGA
Summary of the method: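 Human CYP3A4 activity after 30 min vs 0 min preincubation with test compound; incubate then diluted 1:10 and midazolam added for a 15 min main incubation. Quenched with acetonitrile; hydroxy-midazolam quantified by LC/MS-MS and expressed as % of the 0 min preincubation formation.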

[5] = Homo sapiens, MKN-1, assay 2, CTG 120 h, read-out: MKN1 (assay 2) IC50
[6] = Homo sapiens, MKN-1, assay 3, CTG 120 h, read-out: MKN1 (assay 3) IC50

IC50 ([1]; Homo sapiens, ASPC1) | IC50 [2] | IC50 [3, 5] | IC50 [3, 6] | MBI 3A4 [4] | IC50 ([3]; Homo sapiens, MKN-1, assay 1, CTG 120 h, read-out: MKN1 (assay 1) IC50) | Compound | IC50 [1] | IC50 ([3]; assay 3, CTG 120 h, read-out: MKN1 (assay 3) IC50)
103 nM | 3 nM | 341 nM | – | – | – | C[C@H](Oc1cc(-n2cc3c(n2)CN(C)C3)nc(-c2noc3c2CCC[C@@]32CCCc3sc(N)c(C#N)c32)n1)[C@@H]1CCCN1C [II-174] | – | –
483 nM | 23 nM | – | 1070 nM | – | – | C[C@H](Oc1cc(C2=CCNCC2)nc(-c2noc3c2CCC[C@@]32CCCc3sc(N)c(C#N)c32)n1)[C@@H]1CCCN1C [II-164] | – | –
30 nM | 1 nM | 383 nM | 357 nM | – | – | CO[C@@H]1C[C@@H]([C@H](C)Oc2cc(N3CCNC4(CC4)C3)nc(-c3noc4c3CCC[C@@]43CCCc4sc(N)c(C#N)c43)n2)N(C)C1 [II-187] | – | –
1210 nM | 107 nM | – | – | 82% | – | C[C@H](Oc1cc(N2C[C@H](C)N(C)[C@@H](C)C2)nc(-c2noc3c2CCC[C@@]32CCCc3sc(N)c(C#N)c32)n1)[C@@H]1CCCN1C [II-173] | – | –
483 nM | 137 nM | 41 nM | 63 nM | – | – | C[C@H](Oc1cc(-n2cc3ccn([C@@H]4CCOC4)c(=O)c3n2)nc(-c2noc3c2CCC[C@@]32CCCc3sc(N)c(C#N)c32)n1)[C@@H]1CCCN1C [II-203] | – | –
778 nM | 12 nM | – | 176 nM | – | – | C[C@H](Oc1cc(-n2cc3c(n2)CNC3)nc(-c2noc3c2CCC[C@@]32CCCc3sc(N)c(C#N)c32)n1)[C@@H]1CCCN1C [II-168] | – | –
3730 nM | 1870 nM | – | – | 66% | – | CC(C)N1CCCN(c2cc(-n3ccnc3)nc(-c3noc4c3CCC[C@@]43CCCc4sc(N)c(C#N)c43)n2)[C@@H](C)C1 [II-169] | – | –
190 nM | 15 nM | > 949 nM | 1900 nM | – | – | CCN1CCN(c2cc(O[C@@H](C)[C@@H]3C[C@@H](F)CN3C)nc(-c3noc4c3CCC[C@@]43CCCc4sc(N)c(C#N)c43)n2)CC12CC2 [II-185] | – | –
295 nM | 5 nM | – | – | 63% | – | C[C@H](Oc1cc(N2CCN(C)C3(CC3)C2)nc(-c2noc3c2CCC[C@@]32CCCc3sc(N)c(C#N)c32)n1)[C@@H]1CCCN1C [II-171] | – | –
651 nM | – | – | 14 nM | – | 20 nM | CO[C@H]1CCN(C)[C@@H]1[C@H](C)Oc1cc(-n2ccc(C(N)=O)n2)nc(-c2noc3c2CCC[C@@]32CCCc3sc(N)c(C#N)c32)n1 [II-201] | – | –
275 nM | – | – | 12 nM | – | – | C[C@H](Oc1cc(-n2ccc(-c3cn(CC4(C)COC4)nn3)n2)nc(-c2noc3c2CCC[C@@]32CCCc3sc(N)c(C#N)c32)n1)[C@@H]1CCCN1C [II-213] | – | –
25 nM | 1 nM | 427 nM | – | – | – | C[C@H](Oc1cc(N2CCNC3(CC3)C2)nc(-c2noc3c2CCC[C@@]32CCCc3sc(N)c(C#N)c32)n1)[C@@H]1C[C@@H](F)CN1C [II-165] | – | –
508 nM | 122 nM | 33 nM | 48 nM | – | – | C[C@H](Oc1cc(-n2cc3ccn(C[C@H]4CCOC4)c(=O)c3n2)nc(-c2noc3c2CCC[C@@]32CCCc3sc(N)c(C#N)c32)n1)[C@@H]1CCCN1C [II-204] | – | –
282 nM | – | – | 22 nM | 56% | – | COCCNC(=O)c1ccn(-c2cc(O[C@@H](C)[C@@H]3CCCN3C)nc(-c3noc4c3CCC[C@@]43CCCc4sc(N)c(C#N)c43)n2)n1 [II-195] | – | –
851 nM | 50 nM | – | – | – | – | C[C@H](Oc1nc(-c2noc3c2CCC[C@@]32CCCc3sc(N)c(C#N)c32)nc(N2CCN(C)C3(CC3)C2)c1Cl)[C@@H]1C[C@@H](F)CN1C [II-176] | – | –

The remaining lines, values behind:

Compound | IC50 ([1]; Homo sapiens, ASPC1) | IC50 [2] | IC50 [3, 5] | IC50 [3, 6] | MBI 3A4 [4] | IC50 ([3]; Homo sapiens, MKN-1, assay 1, CTG 120 h, read-out: MKN1 (assay 1) IC50) | IC50 [1] | IC50 ([3]; assay 3, CTG 120 h, read-out: MKN1 (assay 3) IC50)
C[C@H](Oc1nc(-c2noc3c2CCC[C@@]32CCCc3sc(N)c(C#N)c32)nc(N2C[C@H](C)NC3(CC3)C2)c1F)[C@@H]1C[C@@H](F)CN1C [II-157] | 129 nM | 2 nM | – | – | – | – | – | –
C[C@H](Oc1cc(-n2cc3c(n2)CCN(C)C3)nc(-c2noc3c2CCC[C@@]32CCCc3sc(N)c(C#N)c32)n1)[C@@H]1CCCN1C [II-141] | 244 nM | 4 nM | – | – | 88% | – | – | –
C[C@H](Oc1cc(N2CCNC[C@]23CCOC3)nc(-c2onc3c2CCC[C@@]32CCCc3sc(N)c(C#N)c32)n1)[C@@H]1CCCN1C [I-12] | 235 nM | 1 nM | – | – | 56% | – | – | –
C[C@H](Oc1nc(-c2noc3c2CCC[C@@]32CCCc3sc(N)c(C#N)c32)nc(N2CCNC3(CC3)C2)c1F)[C@@H]1C[C@@H](F)CN1C [II-155] | 11 nM | 1 nM | 284 nM | 633 nM | – | – | – | –
C[C@H](Oc1cc(-n2ccc(C(=O)N[C@H]3CCOC3)n2)nc(-c2noc3c2CCC[C@@]32CCCc3sc(N)c(C#N)c32)n1)[C@@H]1CCCN1C [II-193] | – | – | – | – | 61% | – | 176 nM | 17 nM
C[C@H](Oc1cc(N2CCN(C)C3(COC3)C2)nc(-c2noc3c2CCC[C@@]32CCCc3sc(N)c(C#N)c32)n1)[C@@H]1C[C@@H](F)CN1C [II-148] | 376 nM | 11 nM | – | – | 55% | – | – | –
C[C@H](Oc1cc(-c2ccn(C)n2)nc(-c2noc3c2CCC[C@@]32CCCc3sc(N)c(C#N)c32)n1)[C@@H]1C[C@H](F)CN1C [II-144] | 7100 nM | > 1000 nM | – | – | 60% | – | – | –
C[C@H](Oc1cc(-n2cc3c(n2)CNC3)nc(-c2noc3c2CCC[C@@]32CCCc3sc(N)c(C#N)c32)n1)[C@@H]1C[C@@H](F)CN1C [II-154] | 1010 nM | 39 nM | – | – | – | – | – | –
C[C@H](Oc1cc(N2CCN(C)C3(CCOC3)C2)nc(-c2noc3c2CCC[C@@]32CCCc3sc(N)c(C#N)c32)n1)[C@@H]1C[C@@H](F)CN1C (stereo partly drawn) [II-151] | 714 nM | 32 nM | – | – | – | – | – | –
CO[C@@H]1C[C@@H]([C@H](C)Oc2cc(N3CCN(C)C4(COC4)C3)nc(-c3noc4c3CCC[C@@]43CCCc4sc(N)c(C#N)c43)n2)N(C)C1 [II-153] | 577 nM | 14 nM | – | – | 49% | – | – | –
C[C@H](Oc1cc(-c2cn(C)nn2)nc(-c2onc3c2CCC[C@@]32CCCc3sc(N)c(C#N)c32)n1)[C@@H]1CCCN1C [I-16] | – | 673 nM | – | – | – | – | – | –
C[C@H](Oc1cc(-c2cccc(C(N)=O)c2)nc(-c2noc3c2CCC[C@@]32CCCc3sc(N)c(C#N)c32)n1)[C@@H]1CCCN1C [II-133] | 2700 nM | 301 nM | – | 391 nM | – | – | – | –
CO[C@@H]1C[C@@H]([C@H](C)Oc2cc(N3CCN(C)C4(CC4)C3)nc(-c3noc4c3CCC[C@@]43CCCc4sc(N)c(C#N)c43)n2)N(C)C1 [II-152] | 526 nM | 13 nM | – | – | – | – | – | –
C[C@@H]1CN(c2nc(-c3noc4c3CCC[C@@]43CCCc4sc(N)c(C#N)c43)nc(O[C@@H](C)[C@@H]3C[C@@H](F)CN3C)c2F)CC2(CC2)N1 [II-158] | 256 nM | 9 nM | – | – | – | – | – | –
C[C@H](Oc1nc(-c2noc3c2CCC[C@@]32CCCc3sc(N)c(C#N)c32)nc(N2CCNC3(CC3)C2)c1Cl)[C@@H]1C[C@@H](F)CN1C [II-156] | 86 nM | 1 nM | – | – | – | – | – | –
C[C@H](Oc1cc(N2CCOC2=O)nc(-c2noc3c2CCC[C@@]32CCCc3sc(N)c(C#N)c32)n1)[C@@H]1CCCN1C [II-143] | 1510 nM | 59 nM | – | – | – | – | – | –
C[C@H](Oc1cc(N2CCNC[C@@]23CCOC3)nc(-c2onc3c2CCC[C@@]32CCCc3sc(N)c(C#N)c32)n1)[C@@H]1CCCN1C [I-13] | 1550 nM | – | – | 679 nM | 48% | – | – | –
